In ChEMBL document CHEMBL3352722, “Calcitonin gene-related peptide receptor antagonists: new therapeutic agents for migraine” (J Med Chem, 2014):
pIC50, pKi: −log10 of the molar value.

Tests used:
[1] = species: Homo sapiens; assay: Antimigraine activity in migraine patient assessed as pain relief incidence at 100 mg after 2 hrs (reference value: 51.2%); assay type: functional
[2] = species: Homo sapiens; assay: Antimigraine activity in migraine patient assessed as pain freedom incidence at 100 mg after 2 hrs (reference value: 15.3%); assay type: functional
[3] = species: Homo sapiens; assay: Antimigraine activity in migraine patient assessed as pain relief incidence at 40 mg after 2 hrs (reference value: 18.6%); assay type: functional
[4] = species: Homo sapiens; assay: Antimigraine activity in migraine patient assessed as pain freedom incidence at 40 mg after 2 hrs (reference value: 8.6%); assay type: functional
[5] = biological target: Calcitonin gene-related peptide type 1 receptor (Homo sapiens, UniProt O60894+Q16602); assay: Antagonist activity against human CGRP receptor
[6] = test system: Homo sapiens; assay: In vivo receptor occupancy at CGRP receptor in human brain at 140 mg using […]-labeled compound; assay type: functional
[7] = test system: Homo sapiens; assay: In vivo receptor occupancy at CGRP receptor in human brain at 1120 mg using […]-labeled compound; assay type: functional
[8] = species: Homo sapiens; assay: Antimigraine activity in migraine patient assessed as response rate for pain freedom at 50 mg after 2 hrs; assay type: functional
[9] = species: Homo sapiens; assay: Antimigraine activity in migraine patient assessed as response rate for pain freedom at 50 to 400 mg after 2 hrs; assay type: functional
[10] = species: Homo sapiens; assay: Antimigraine activity in migraine patient assessed as pain freedom incidence at 200 mg after 2 hrs (reference value: 8.6%); assay type: functional
[11] = species: Homo sapiens; assay: Antimigraine activity in migraine patient assessed as pain relief incidence at 400 mg after 2 hrs (reference value: 18.6%); assay type: functional
[12] = species: Homo sapiens; assay: Antimigraine activity in migraine patient assessed as response rate for pain freedom at 400 mg after 2 hrs; assay type: functional
[13] = species: Homo sapiens; assay: Antimigraine activity in migraine patient assessed as pain relief incidence at 200 mg after 2 hrs (reference value: 18.6%); assay type: functional
[14] = species: Homo sapiens; assay: Antimigraine activity in migraine patient assessed as pain freedom incidence at 400 mg after 2 hrs (reference value: 8.6%); assay type: functional
[15] = species: Homo sapiens; assay: Antimigraine activity in migraine patient assessed as response rate for pain freedom at 200 mg after 2 hrs; assay type: functional

Calcitonin gene-related peptide type 1 receptor, sequence (Q16602 whole entry, one chain of several): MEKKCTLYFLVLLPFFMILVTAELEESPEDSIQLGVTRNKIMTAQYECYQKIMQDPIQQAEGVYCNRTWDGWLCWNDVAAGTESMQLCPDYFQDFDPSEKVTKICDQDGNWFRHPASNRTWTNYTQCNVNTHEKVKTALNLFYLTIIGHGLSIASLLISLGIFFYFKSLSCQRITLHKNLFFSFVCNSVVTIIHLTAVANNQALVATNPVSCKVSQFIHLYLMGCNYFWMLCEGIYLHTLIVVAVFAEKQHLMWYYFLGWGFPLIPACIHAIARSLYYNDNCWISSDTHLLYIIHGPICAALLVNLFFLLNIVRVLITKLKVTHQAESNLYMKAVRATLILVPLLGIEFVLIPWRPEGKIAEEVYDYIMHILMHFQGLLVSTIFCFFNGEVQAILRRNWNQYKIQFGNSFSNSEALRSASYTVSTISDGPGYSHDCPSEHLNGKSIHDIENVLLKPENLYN

Question: `CNS(=O)(=O)Cc1ccc2[nH]cc(CCN(C)C)c2c1` was tested. Which Activity [1] did it give?
Answer: 72%

Question: What about the Activity [2] of the same compound?
Answer: 35%

Question: How did the Activity [3] turn out when `CN1CCC[C@@H]1Cc1c[nH]c2ccc(CCS(=O)(=O)c3ccccc3)cc12` was run?
Answer: 56.5%

Question: What about the Activity [4] of the same compound?
Answer: 34.8%

Question: How did the pIC50 [5] turn out when `NCCCC[C@H](NC(=O)[C@@H](Cc1cc(Br)c(O)c(Br)c1)NC(=O)CCCc1ccccc1)C(=O)NCCc1ccccc1` was run?
Answer: 4.77

Question: `NCCCC[C@H](NC(=O)[C@@H](Cc1cc(Br)c(O)c(Br)c1)NC(=O)N1CCC(n2c(=O)oc3ccccc32)CC1)C(=O)N1CCN(c2ccncc2)CC1` was tested. Which pIC50 [5] did it give?
Answer: 7.36

Question: `C[C@@]1(c2cc(F)cc(F)c2)CN([11CH3])C2(CCCC2)C(=O)N1CC(=O)Nc1ccc2c(c1)C[C@@]1(C2)C(=O)Nc2ncccc21` was tested. Which Occ [6] did it give?
Answer: <=10%

Question: What about the Occ [7] of the same compound?
Answer: 43%

Question: For `Cc1cc(C[C@@H](OC(=O)N2CCC(N3CCc4ccccc4NC3=O)CC2)C(=O)N2CCC(N3CCOCC3)CC2)cc(C)c1O` [BI-44370], which Activity [8] is on record?
Answer: 7.8%

Question: What about the Activity [9] of the same compound?
Answer: 34.8%

Question: What about the Activity [10] of the same compound?
Answer: 21.5%

Question: And the Activity [11]?
Answer: 56.2%

Question: What about the Activity [12] of the same compound?
Answer: 27.4%

Question: And the Activity [13]?
Answer: 50.8%

Question: And the pKi [5]?
Answer: 9.52

Question: And the Activity [14]?
Answer: 27.4%

Question: And the Activity [15]?
Answer: 21.5%
